Measurements as given in ChEMBL document CHEMBL4118276, “The mimics of Nε-acyl-lysine derived from cysteine as sirtuin inhibitors” (Bioorg Med Chem Lett, 2018).
The source made the active and inactive calls. No cut-off for these calls is given here. Residues, ends and D or L forms follow the SMILES beside them. *: point of attachment. X2 = CCCCCCCCCCCCCNC(=O)CCC*; X1 = CCCCCCCCCCNC(=O)CCC*

How the values were obtained:
[1] = molecular target: T1, NAD-dependent protein deacetylase sirtuin-1 (Homo sapiens) (UniProt Q96EB6); assay: Inhibition of human SIRT1 expressed in Escherichia coli BL21 at 250 uM using H3K9AcWW as substrate preincubated for 15 mins followed by substrate addition measured after 1 hr by HPLC analysis relative to control
T1 sequence (whole entry): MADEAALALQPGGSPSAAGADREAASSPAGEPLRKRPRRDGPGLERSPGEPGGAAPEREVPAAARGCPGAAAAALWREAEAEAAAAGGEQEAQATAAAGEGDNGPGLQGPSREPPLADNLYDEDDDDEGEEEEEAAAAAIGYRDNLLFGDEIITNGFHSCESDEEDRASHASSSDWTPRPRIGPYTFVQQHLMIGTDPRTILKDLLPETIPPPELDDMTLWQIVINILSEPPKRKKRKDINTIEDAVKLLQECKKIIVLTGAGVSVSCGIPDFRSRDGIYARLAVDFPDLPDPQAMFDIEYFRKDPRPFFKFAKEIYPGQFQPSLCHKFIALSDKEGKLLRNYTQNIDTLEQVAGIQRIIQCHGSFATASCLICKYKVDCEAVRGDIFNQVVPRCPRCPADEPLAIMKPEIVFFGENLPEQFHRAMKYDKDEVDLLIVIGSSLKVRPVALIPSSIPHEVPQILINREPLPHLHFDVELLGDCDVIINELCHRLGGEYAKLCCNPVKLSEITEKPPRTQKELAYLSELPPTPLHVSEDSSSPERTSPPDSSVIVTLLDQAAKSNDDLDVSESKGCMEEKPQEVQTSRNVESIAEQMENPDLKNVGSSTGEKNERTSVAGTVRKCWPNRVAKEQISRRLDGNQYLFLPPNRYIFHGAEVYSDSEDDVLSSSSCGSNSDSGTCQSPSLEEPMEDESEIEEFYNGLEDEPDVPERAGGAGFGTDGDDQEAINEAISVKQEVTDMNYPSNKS

[2] = molecular target: T2, NAD-dependent protein deacylase sirtuin-5, mitochondrial (Homo sapiens, UniProt Q9NXA8); assay: Inhibition of human SIRT5 expressed in Escherichia coli BL21 at 250 uM using H3K9AcWW as substrate preincubated for 15 mins followed by substrate addition measured after 1 hr by HPLC analysis relative to control
Target sequence in this assay (Q9NXA8 37-310 limits assumed): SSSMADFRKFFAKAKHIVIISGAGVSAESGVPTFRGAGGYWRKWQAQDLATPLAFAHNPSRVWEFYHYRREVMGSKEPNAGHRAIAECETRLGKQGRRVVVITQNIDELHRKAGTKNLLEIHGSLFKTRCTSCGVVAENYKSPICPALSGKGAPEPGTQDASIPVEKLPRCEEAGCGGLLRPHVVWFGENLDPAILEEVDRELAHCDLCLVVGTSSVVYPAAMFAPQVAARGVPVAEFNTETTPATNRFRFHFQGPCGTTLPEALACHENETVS

[3] = molecular target: T3, NAD-dependent protein deacylase sirtuin-6 (Homo sapiens, UniProt Q8N6T7); assay: Inhibition of human SIRT6 (1 to 294 residues) expressed in Escherichia coli Rosetta (DE3) at 250 uM using H3K9AcWW as substrate preincubated for 15 mins followed by substrate addition measured after 1 hr by HPLC analysis relative to control
T3 sequence (Q8N6T7 whole entry, the tested form may be a part): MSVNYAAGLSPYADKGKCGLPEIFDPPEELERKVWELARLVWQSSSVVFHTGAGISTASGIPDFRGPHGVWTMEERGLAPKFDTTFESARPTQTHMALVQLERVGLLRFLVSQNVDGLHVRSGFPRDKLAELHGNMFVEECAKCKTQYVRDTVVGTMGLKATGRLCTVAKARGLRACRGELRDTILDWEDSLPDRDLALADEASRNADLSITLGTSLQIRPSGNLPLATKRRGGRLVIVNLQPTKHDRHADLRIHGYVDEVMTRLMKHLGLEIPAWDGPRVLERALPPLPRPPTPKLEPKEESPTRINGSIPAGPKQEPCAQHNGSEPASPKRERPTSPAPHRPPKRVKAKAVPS

[4] = molecular target: T4, NAD-dependent protein deacetylase sirtuin-1 (Homo sapiens, UniProt Q96EB6); assay: Inhibition of human SIRT1 expressed in Escherichia coli BL21 using H3K9AcWW as substrate preincubated for 15 mins followed by substrate addition measured after 1 hr by HPLC analysis
T4 sequence (Q96EB6 whole entry): T1 sequence (whole entry)

[5] = molecular target: T5, NAD-dependent protein deacetylase sirtuin-2 (Homo sapiens, UniProt Q8IXJ6); assay: Inhibition of human N-terminal His6-SUMO-tagged SIRT2 (38 to 356 residues) expressed in Escherichia coli BL21 using H3K9AcWW as substrate preincubated for 15 mins followed by substrate addition measured after 1 hr by HPLC analysis
T5 sequence (Q8IXJ6 whole entry): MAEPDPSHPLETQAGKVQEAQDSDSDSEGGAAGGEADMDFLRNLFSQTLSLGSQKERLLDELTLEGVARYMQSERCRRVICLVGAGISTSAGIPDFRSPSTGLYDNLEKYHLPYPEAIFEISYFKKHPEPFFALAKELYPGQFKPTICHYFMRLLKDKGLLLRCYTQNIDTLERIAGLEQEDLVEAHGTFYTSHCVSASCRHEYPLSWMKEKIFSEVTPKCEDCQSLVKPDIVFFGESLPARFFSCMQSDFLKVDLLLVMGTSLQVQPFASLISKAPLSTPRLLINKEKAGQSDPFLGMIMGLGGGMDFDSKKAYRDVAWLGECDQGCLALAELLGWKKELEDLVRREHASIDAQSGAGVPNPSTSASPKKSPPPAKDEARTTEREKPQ

[6] = molecular target: T6, NAD-dependent protein deacetylase sirtuin-3, mitochondrial (Homo sapiens, UniProt Q9NTG7); assay: Inhibition of human SIRT3 expressed in Escherichia coli BL21 using H3K9AcWW as substrate preincubated for 15 mins followed by substrate addition measured after 1 hr by HPLC analysis
T6 sequence (Q9NTG7 whole entry): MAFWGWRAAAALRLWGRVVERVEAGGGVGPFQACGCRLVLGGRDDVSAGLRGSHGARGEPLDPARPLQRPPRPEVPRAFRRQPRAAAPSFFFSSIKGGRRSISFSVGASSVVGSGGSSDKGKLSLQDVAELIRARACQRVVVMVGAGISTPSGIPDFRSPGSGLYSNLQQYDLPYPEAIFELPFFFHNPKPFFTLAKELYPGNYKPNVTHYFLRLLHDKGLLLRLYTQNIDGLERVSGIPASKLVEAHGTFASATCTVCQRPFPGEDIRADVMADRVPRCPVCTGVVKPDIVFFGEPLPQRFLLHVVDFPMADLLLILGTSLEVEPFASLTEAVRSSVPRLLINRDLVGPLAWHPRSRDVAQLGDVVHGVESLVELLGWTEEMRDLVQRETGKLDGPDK

[7] = molecular target: T2, NAD-dependent protein deacylase sirtuin-5, mitochondrial; assay: Inhibition of human SIRT5 expressed in Escherichia coli BL21 using H3K9AcWW as substrate preincubated for 15 mins followed by substrate addition measured after 1 hr by HPLC analysis
Target sequence in this assay (Q9NXA8 whole entry, the tested form may be a part): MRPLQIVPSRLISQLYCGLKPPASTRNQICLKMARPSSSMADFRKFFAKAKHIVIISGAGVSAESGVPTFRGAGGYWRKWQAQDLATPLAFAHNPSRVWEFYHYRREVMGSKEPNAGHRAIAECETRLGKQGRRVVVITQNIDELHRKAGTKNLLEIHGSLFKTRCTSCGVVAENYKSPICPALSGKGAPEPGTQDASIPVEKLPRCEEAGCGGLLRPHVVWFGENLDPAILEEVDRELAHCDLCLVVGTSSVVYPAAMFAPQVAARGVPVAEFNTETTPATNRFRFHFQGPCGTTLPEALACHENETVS

[8] = molecular target: T3, NAD-dependent protein deacylase sirtuin-6; assay: Inhibition of human SIRT6 (1 to 294 residues) expressed in Escherichia coli Rosetta (DE3) using H3K9AcWW as substrate preincubated for 15 mins followed by substrate addition measured after 1 hr by HPLC analysis
[9] = molecular target: T7, NAD-dependent protein deacetylase sirtuin-2 (Homo sapiens) (UniProt Q8IXJ6); assay: Inhibition of human N-terminal His6-SUMO-tagged SIRT2 (38 to 356 residues) expressed in Escherichia coli BL21 at 250 uM using H3K9AcWW as substrate preincubated for 15 mins followed by substrate addition measured after 1 hr by HPLC analysis relative to control
T7 sequence (whole entry): T5 sequence (Q8IXJ6 whole entry)

[10] = species on record: Homo sapiens; assay: Selectivity ratio of IC50 for human SIRT1 expressed in Escherichia coli BL21 to IC50 for human N-terminal His6-SUMO-tagged SIRT2 (38 to 356 residues) expressed in Escherichia coli BL21
[11] = species on record: Homo sapiens; assay: Selectivity ratio of IC50 for human SIRT3 expressed in Escherichia coli BL21 to IC50 for human N-terminal His6-SUMO-tagged SIRT2 (38 to 356 residues) expressed in Escherichia coli BL21
[12] = species on record: Homo sapiens; assay: Selectivity ratio of IC50 for human SIRT5 expressed in Escherichia coli BL21 to IC50 for human N-terminal His6-SUMO-tagged SIRT2 (38 to 356 residues) expressed in Escherichia coli BL21
[13] = species on record: Homo sapiens; assay: Selectivity ratio of IC50 for human SIRT6 (1 to 294 residues) expressed in Escherichia coli Rosetta (DE3) to human N-terminal His6-SUMO-tagged SIRT2 (38 to 356 residues) expressed in Escherichia coli BL21
[14] = molecular target: T7, NAD-dependent protein deacetylase sirtuin-2 (Homo sapiens); assay: Competitive inhibition of human N-terminal His6-SUMO-tagged SIRT2 (38 to 356 residues) expressed in Escherichia coli BL21 at 5 to 10 uM using H3K9AcWW as substrate assessed as increase in substrate Km preincubated for 15 mins followed by substrate addition measured after 1 hr by double-reciprocal plot analysis

| Compound | inhibition [1] | inhibition [2] | inhibition [3] | IC50 [4] | IC50 [5] | IC50 [6] | IC50 [7] | IC50 [8] | inhibition [9] | Ratio IC50 [10] | Ratio IC50 [11] | Ratio IC50 [12] | Ratio IC50 [13] | inhibition [14] |
| --- | --- | --- | --- | --- | --- | --- | --- | --- | --- | --- | --- | --- | --- | --- |
| CCCCCCCCCCNC(=O)CCCSC[C@H](NC(=O)[C@H](CCCNC(=N)N)NC(=O)[C@H](C)NC(=O)[C@@H](NC(=O)[C@H](CCC(N)=O)NC(=O)[C@@H](N)CCCCN)[C@@H](C)O)C(=O)N[C@@H](CO)C(=O)N[C@H](C(=O)NCC(=O)NCC(=O)N[C@@H](CCCCN)C(=O)O)[C@@H](C)O (H-KQTARC(X1)STGGK-OH) | 60% | inactive | 41% | > 200 µM | 20 µM | > 500 µM | > 500 µM | > 250 µM | 95% | > 10 | > 10 | > 10 | > 10 | Active |
| CCCCCCCCCCCCCNC(=O)CCCSC[C@H](NC(=O)[C@H](CCCNC(=N)N)NC(=O)[C@H](C)NC(=O)[C@@H](NC(=O)[C@H](CCC(N)=O)NC(=O)[C@@H](N)CCCCN)[C@@H](C)O)C(=O)N[C@@H](CO)C(=O)N[C@H](C(=O)NCC(=O)NCC(=O)N[C@@H](CCCCN)C(=O)O)[C@@H](C)O (H-KQTARC(X2)STGGK-OH) | 67% | inactive | 54% | > 200 µM | 35 µM | > 50 µM | > 50 µM | > 20 µM | 87% | 10 | 10 | 10 | 10 |  |
